Laboratory results: article PMC9380671, “Development of spiro-3-indolin-2-one containing compounds of antiproliferative and anti-SARS-CoV-2 properties” (Scientific Reports, 2022)
Where two headings read alike, the source gives them in different places.

Experiments:
[1] = test system: MCF7 (breast) cancer cell line; assay: MTT antiproliferation, MCF7; type: cell-based, human; conditions: for IC50: Homo sapiens, MCF7, 72 h, read-out: IC50 (µM) ± SEM MCF7; for SI (selectivity index) MCF7: IC50 of RPE1/IC50 of cancer cell line
In short: (§1)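 Cells seeded 30000/well for 24 h, then treated for 72 h with triplicate wells per dose; 0.5% DMSO as negative control. MTT (2.5 mg ml^-1) added for 4 h at 37 °C, crystals dissolved in 10% SDS overnight. Surviving fraction = O.D. treated / O.D. control.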

[2] = test system: HCT116 (colon) cancer cell line; assay: MTT antiproliferation, HCT116; type: cell-based, human; conditions: for IC50: Homo sapiens, HCT-116, 72 h, read-out: IC50 (µM) ± SEM HCT116; for SI (selectivity index) HCT116: IC50 of RPE1/IC50 of cancer cell line
In short: as §1

[3] = test system: MCF7 (breast cancer cell line); assay: PI-flow cytometry cell cycle studies; type: cell-based, human; conditions: MCF7, PI-FC, compound at its MTT IC50
Description: Flow cytometry (FC) is a reliable technique for evaluation of cancer cell progression[72]–[74]. Illumination of the cells by lasers can identify the stained propidium iodide (PI) DNA cell content in stoichiometric population value. This is a commonly accessible methodology for studying cancer cell antiproliferation and cell cycle phase suppression.
Cell cycle studies for the most promising agents synthesized (6l and 6m) against MCF7 (breast) cancer call were conducted by the standard technique. The Cells were suspended in DMEM medium in addition to 1% antibiotic–antimycotic mixture (10000 μg ml^-1 potassium penicillin, 10000 μg ml^-1 streptomycin sulfate and 25 μg ml^-1 amphotericin B), 10% fetal bovine serum and 1% L-glutamine at 37 °C, under 5% CO2 and 95% humidity. Cells were seeded at concentration of 30000 cells per well in fresh complete growth medium in 96-well tissue culture microtiter plates for 24 h. Media was aspirated, fresh complete medium was added and cells were incubated with the IC50 concentration of the tested compounds which determined previously in the MTT antiproliferation testing assay. The ab139418-Propidium Iodide Flow Cytometry kit for cycle analysis (reader: BD FACS Calibur)^8 was used for cell cycle analysis. The Annexin V-FITC Apoptosis Detection Kit (Catalog#K101-25) was utilized for apoptosis studies.^9 All the studies were conducted according to the manufacturer’s instruction.

EGFR = biological target: T1, EGFR (Homo sapiens, UniProt P00533); type: cell-based; conditions: western blot, MCF7, compound at its MTT IC50; for EGFR RQ (relative quantification): control RQ 3.4461
T1 construct: Western blot technique was considered for EGFR and VEGFR-2 properties determination; endogenous in cells; host or cells: MCF7 (breast cancer cell line)
T1 sequence (P00533 25-1210): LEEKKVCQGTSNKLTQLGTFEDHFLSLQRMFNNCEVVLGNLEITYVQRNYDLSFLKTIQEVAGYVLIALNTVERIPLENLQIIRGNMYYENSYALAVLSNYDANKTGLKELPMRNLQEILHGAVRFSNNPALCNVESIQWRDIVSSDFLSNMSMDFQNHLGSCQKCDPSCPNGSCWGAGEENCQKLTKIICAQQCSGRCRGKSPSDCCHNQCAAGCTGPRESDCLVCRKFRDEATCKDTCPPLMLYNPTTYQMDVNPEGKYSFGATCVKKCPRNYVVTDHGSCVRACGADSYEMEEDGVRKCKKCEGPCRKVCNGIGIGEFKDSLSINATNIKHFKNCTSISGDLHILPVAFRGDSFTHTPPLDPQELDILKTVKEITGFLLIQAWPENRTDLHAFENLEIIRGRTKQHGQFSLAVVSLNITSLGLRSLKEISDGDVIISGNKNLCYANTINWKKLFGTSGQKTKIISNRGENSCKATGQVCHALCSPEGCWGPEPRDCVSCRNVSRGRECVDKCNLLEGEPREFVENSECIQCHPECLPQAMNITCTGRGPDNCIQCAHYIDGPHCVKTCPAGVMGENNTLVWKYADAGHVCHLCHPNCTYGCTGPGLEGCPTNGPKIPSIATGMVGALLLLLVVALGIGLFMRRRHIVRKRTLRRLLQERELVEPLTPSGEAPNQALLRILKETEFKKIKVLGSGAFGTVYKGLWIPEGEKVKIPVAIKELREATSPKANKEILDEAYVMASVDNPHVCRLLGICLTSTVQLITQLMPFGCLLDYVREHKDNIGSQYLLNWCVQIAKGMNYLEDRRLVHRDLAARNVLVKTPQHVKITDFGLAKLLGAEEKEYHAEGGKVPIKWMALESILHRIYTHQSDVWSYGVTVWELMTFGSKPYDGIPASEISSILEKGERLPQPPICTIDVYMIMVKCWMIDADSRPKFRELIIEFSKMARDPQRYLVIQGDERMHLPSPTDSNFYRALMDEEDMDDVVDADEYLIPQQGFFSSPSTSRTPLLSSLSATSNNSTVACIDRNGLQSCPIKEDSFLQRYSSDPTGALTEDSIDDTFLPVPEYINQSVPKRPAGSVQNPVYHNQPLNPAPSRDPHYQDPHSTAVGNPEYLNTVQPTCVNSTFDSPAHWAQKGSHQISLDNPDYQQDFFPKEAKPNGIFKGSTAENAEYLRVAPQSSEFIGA
In short: (§2)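 Western blot of MCF7 breast cancer cells, each agent tested at its own IC50 from the MTT assay on that line, following the manufacturer's instructions.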

VEGFR-2 = biological target: T2, VEGFR-2 (Homo sapiens, UniProt P35968); type: cell-based; conditions: western blot, MCF7, compound at its MTT IC50; for VEGFR-2 RQ (relative quantification): control RQ 3.2634
T2 construct: Western blot technique was considered for EGFR and VEGFR-2 properties determination; endogenous in cells; host or cells: MCF7 (breast cancer cell line)
T2 sequence (P35968 20-1356): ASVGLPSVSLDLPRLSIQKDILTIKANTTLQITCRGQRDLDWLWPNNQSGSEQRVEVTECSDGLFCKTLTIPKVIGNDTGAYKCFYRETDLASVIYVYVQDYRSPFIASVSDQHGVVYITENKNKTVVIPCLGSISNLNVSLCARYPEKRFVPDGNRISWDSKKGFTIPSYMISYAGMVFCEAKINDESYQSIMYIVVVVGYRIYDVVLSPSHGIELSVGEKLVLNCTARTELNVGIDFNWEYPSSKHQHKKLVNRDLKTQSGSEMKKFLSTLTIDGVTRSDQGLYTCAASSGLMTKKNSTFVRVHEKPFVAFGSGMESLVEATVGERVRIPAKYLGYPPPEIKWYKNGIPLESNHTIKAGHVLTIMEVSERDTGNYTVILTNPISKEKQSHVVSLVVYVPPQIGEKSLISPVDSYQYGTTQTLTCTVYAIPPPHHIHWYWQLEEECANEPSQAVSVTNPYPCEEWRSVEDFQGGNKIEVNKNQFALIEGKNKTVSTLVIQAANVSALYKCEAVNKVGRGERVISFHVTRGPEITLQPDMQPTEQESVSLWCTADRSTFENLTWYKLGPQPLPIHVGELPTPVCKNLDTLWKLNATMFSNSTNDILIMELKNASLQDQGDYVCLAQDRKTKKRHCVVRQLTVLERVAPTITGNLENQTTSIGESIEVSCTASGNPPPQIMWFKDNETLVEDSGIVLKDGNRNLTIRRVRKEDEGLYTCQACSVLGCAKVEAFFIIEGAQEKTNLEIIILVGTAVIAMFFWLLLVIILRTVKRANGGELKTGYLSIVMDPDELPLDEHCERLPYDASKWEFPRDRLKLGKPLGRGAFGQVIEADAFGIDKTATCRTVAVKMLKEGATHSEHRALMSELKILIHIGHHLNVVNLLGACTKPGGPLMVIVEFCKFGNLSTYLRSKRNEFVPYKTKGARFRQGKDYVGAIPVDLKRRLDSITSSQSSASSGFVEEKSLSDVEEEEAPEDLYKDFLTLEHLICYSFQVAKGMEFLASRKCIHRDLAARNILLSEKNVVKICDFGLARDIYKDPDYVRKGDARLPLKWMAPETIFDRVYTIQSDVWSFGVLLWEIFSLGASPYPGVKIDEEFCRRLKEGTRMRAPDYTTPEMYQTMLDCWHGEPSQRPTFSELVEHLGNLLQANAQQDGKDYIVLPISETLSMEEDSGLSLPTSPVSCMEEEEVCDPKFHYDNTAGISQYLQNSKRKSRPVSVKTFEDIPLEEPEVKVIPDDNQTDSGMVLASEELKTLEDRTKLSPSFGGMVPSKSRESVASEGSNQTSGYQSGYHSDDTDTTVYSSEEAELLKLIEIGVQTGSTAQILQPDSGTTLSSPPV
In short: as §2

[4] = test system: SARS-CoV-2 (hCoV-19/Egypt/NRC-03/2020); assay: Vero-E6 cell viral infection model, anti-SARS-CoV-2 IC50 (CPE, crystal violet); type: cell-based; conditions: for IC50: Severe acute respiratory syndrome coronavirus 2, Vero C1008; for SI = CC50/IC50: Vero-E6, SARS-CoV-2
[5] = MTT cytotoxicity assay (CC50); type: cell-based; conditions: African green monkey, VERO-E6 cells
In short: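 VERO-E6 cells seeded at 3 x 10^5 cell/ml, grown 24 h at 37 °C, then exposed to compounds in triplicate for 24 h. Viability by MTT (4 h, 37 °C), formazan in acidified isopropanol read at 570 nm; CC50 by nonlinear regression versus untreated cells.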

AChE = AChE (Homo sapiens, UniProt P22303); assay: AChE inhibition (DTNB, acetylthiocholine); type: biochemical; conditions: for IC50: read-out: AChE (IC50, μM) ± SD
Sequence of AChE (P22303 32-614): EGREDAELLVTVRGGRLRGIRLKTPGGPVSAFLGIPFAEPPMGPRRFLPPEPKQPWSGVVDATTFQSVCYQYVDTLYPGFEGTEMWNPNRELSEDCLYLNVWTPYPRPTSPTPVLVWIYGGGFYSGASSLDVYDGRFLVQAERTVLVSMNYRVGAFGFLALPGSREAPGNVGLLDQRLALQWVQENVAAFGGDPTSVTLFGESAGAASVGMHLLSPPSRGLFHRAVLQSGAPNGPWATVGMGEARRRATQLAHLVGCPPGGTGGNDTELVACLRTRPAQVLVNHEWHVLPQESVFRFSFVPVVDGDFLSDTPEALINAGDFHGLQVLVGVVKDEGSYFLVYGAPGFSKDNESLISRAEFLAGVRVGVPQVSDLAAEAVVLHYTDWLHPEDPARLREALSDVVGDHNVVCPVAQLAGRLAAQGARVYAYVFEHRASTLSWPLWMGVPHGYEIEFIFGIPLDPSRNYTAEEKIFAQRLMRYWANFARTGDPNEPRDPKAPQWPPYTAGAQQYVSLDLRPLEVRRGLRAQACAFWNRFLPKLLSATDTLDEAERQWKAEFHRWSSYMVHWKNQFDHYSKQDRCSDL
Description: All compounds were dissolved in MeOH.

BChE = BChE (Homo sapiens, UniProt P06276); assay: BChE inhibition (DTNB, butyrylthiocholine iodide)
Sequence of BChE (P06276 29-602, species assumed): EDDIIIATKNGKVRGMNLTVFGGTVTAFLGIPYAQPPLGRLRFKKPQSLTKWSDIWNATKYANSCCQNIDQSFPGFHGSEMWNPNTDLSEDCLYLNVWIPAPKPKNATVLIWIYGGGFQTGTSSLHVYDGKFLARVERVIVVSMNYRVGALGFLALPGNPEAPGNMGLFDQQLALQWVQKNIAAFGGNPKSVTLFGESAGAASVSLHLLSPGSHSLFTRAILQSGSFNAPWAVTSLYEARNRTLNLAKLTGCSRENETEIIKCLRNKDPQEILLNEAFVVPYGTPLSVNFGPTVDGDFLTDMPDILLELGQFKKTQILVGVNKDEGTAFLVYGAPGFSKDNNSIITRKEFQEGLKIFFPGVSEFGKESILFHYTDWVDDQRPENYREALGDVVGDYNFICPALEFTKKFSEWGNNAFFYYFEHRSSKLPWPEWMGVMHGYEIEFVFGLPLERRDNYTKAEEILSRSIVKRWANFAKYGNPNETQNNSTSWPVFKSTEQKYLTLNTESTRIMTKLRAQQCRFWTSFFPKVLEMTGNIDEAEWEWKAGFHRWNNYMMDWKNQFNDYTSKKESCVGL
Description: Butyrylthiocholine iodide and acetylthiocholine were utilized as substrates in BChE and AChE assays, respectively, where DTNB was served as indicator. All compounds were dissolved in MeOH. […] Blank assays were performed by replacing the enzyme (20 μL) with buffer and their absorbances were recorded for correction of the spontaneous lysis of the indicator or inherent color of the inhibitor.
% Inhibition = [1−(corrected A/corrected B)] * 100

[6] = Vero-E6, 72 h, reduction of virus-induced CPE, read-out: IC50 (µM) SARS-CoV-2
[7] = log of observed IC50 in μM, read-out: Observed log(IC50, μM) (SARS-CoV-2) (converted)

| SMILES | IC50 [1] [µM] | SI (selectivity index) MCF7 [1] | IC50 [2] [µM] | SI (selectivity index) HCT116 [2] | % DNA content G0–G1 [3] [%] | % DNA content G2/M [3] [%] | % DNA content S [3] [%] | EGFR % Inhibition (EGFR) [%] | EGFR RQ (relative quantification) (EGFR) | VEGFR-2 % Inhibition (VEGFR-2) [%] | VEGFR-2 RQ (relative quantification) (VEGFR-2) | IC50 [4, 6] [µM] | IC50 [4, 7] [µM] | SI = CC50/IC50 [4] | CC50 at 24 h [5] [µM] | SI = IC50 (AChE)/IC50 (BChE) (AChE) | IC50 (AChE) [µM] | IC50 (BChE) [µM] |
| --- | --- | --- | --- | --- | --- | --- | --- | --- | --- | --- | --- | --- | --- | --- | --- | --- | --- | --- |
| CCS(=O)(=O)N1C/C(=C\c2ccc(Cl)cc2)C(=O)C2(C1)C(c1ccc(Cl)cc1)CN(C)C21C(=O)Nc2ccc(Cl)cc21 (stereo not drawn) [Compound 6l, (E)-5-Chloro-5″-(4-chlorobenzylidene)-4′-(4-chlorophenyl)-1″-(ethylsulfonyl)-1′-methyldispiro[indoline-3,2′-pyrrolidine-3′,3″-piperidine]-2,4″-dione] | 3.99 ± 0.31 | > 12.5 | 4.11 ± 0.41 | > 12.2 | 66.13 | 10.13 | 23.74 | 65.7 | 1.18 | 60.2 | 1.299 | 31.4 | 31.4 | 15.1 | 476 | 2.0 | 23.6 ± 7.73 | 11.8 ± 0.95 |
| CN1CC(c2ccc(Br)cc2)C2(CN(S(C)(=O)=O)C/C(=C\c3ccc(Br)cc3)C2=O)C12C(=O)Nc1ccccc12 (stereo not drawn) [Compound 6m, (E)-5″-(4-Bromobenzylidene)-4′-(4-bromophenyl)-1′-methyl-1″-(methylsulfonyl)dispiro[indoline-3,2′-pyrrolidine-3′,3″-piperidine]-2,4″-dione] | 3.6 ± 0.19 | 4.1 | 3.24 ± 0.27 | 4.6 | 62.51 | 2.38 | 35.11 | 65.6 | 1.1845 | 61.3 | 1.264 | 8.92 | 8.92 | 17.9 | 160 | 1.1 | 29.7 ± 4.05 | 27.9 ± 2.96 |
